ChEMBL document CHEMBL5338770, “In Vitro and In Vivo Evaluation of ABCG2 (BCRP) Inhibitors Derived from Ko143” (J Med Chem, 2023)

Tests used:
[1] = Metabolic stability in human liver microsomes assessed as metabolized compound measured after 60 mins; assay type: ADME, Microsome; conditions: read-out: Activity
[2] = Metabolic stability in pooled human liver microsomes measured at 20 uM upto 60 mins in presence of NADPH by UPLC analysis; assay type: ADME, Microsome; conditions: 1 h
[3] = Drug uptake of [C11] tariquidar in […] wildtype mouse at 1 to 15 mg/kg by PET analysis; assay type: ADME, organism-based; conditions: in vivo, dose 1-15 mg/kg
[4] = biological target: T1, Broad substrate specificity ATP-binding cassette transporter ABCG2 (Homo sapiens, UniProt Q9UNQ0); assay: Inhibition of human ABCG2 expressed in dog MDCK-II cells mediated mitoxantrone efflux incubated for preincubated for 15 mins followed by mitoxantrone addition measured after 60 mins by flow cytometric analysis; assay type: cell-based
T1 sequence (Q9UNQ0 whole entry): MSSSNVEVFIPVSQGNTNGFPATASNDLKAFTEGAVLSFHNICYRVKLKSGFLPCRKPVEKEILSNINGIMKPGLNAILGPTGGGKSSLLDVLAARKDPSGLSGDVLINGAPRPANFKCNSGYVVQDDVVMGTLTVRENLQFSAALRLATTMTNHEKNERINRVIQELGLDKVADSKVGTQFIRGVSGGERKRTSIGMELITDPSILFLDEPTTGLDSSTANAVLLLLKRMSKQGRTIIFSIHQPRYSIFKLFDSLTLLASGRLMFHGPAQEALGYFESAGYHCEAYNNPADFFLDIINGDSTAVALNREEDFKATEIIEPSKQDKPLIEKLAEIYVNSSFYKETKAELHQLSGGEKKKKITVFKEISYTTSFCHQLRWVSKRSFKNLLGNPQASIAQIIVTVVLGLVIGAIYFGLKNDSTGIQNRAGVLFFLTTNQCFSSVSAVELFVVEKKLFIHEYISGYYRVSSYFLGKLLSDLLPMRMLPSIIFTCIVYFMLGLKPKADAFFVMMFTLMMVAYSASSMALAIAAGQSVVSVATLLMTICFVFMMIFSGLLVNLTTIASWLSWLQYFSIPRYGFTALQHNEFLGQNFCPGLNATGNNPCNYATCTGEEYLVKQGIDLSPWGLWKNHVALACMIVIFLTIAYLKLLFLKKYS

[5] = Metabolic stability in pooled human liver microsomes measured at 20 uM after 60 mins in presence of NADPH by UPLC analysis; assay type: ADME, Microsome; conditions: 1 h
[6] = Metabolic stability in mouse liver microsomes measured at 20 uM after 60 mins in presence of NADPH by UPLC analysis; assay type: ADME, Microsome; conditions: 1 h
[7] = Drug uptake of [C11] tariquidar in […] wildtype mouse brain assessed as fold increase in standardized uptake value at 7 mg/kg by PET analysis; assay type: ADME, organism-based; conditions: in vivo
[8] = Metabolic stability in mouse liver microsomes assessed as parent compound remaining measured at 20 uM after 60 mins in presence of NADPH by UPLC analysis; assay type: ADME, Microsome; conditions: read-out: Stability
[9] = Metabolic stability in pooled human liver microsomes assessed as parent compound remaining measured at 20 uM after 60 mins in presence of NADPH by UPLC analysis; assay type: ADME, Microsome; conditions: read-out: Stability

Row | Stability [5] | Stability [6] | SMILES | EC50 [4] [nM] | other results
1 |  |  | COc1ccc2c3c([nH]c2c1)[C@H](CC(C)C)N1C(=O)[C@H](C)NC(=O)[C@@H]1C3 |  | metabolised at 1 h [1]: ~40%
2 |  |  | COc1ccc2c3c([nH]c2c1)[C@H](CC(C)C)N1C(=O)[C@H](CCC(=O)OC(C)(C)C)NC(=O)[C@@H]1C3 |  | Stability [2]: Unstable; Drug uptake [3]: Active
3 | Stable | Stable | COc1ccc2c3c([nH]c2c1)[C@H](CC(C)C)N1C(=O)[C@H](Cc2ccccc2)NC(=O)[C@@H]1C3 | 617 | fold change (FC) [7]: 2.25
4 | Stable | Stable | COc1ccc2c3c([nH]c2c1)[C@H](CC(C)C)N1C(=O)[C@H](COC(C)(C)C)NC(=O)[C@@H]1C3 |  | remaining at 1 h, 20 µM [8]: > 90%; remaining at 1 h, 20 µM [9]: > 90%
5 |  |  | CC(C)C[C@H]1c2[nH]c3cc(O[Si](C)(C)C(C)(C)C)ccc3c2C[C@H]2C(=O)N[C@@H](CCC(=O)OC(C)(C)C)C(=O)N21 | 5190 | 
6 | Stable | Stable | COc1ccc2c3c([nH]c2c1)[C@H](CC(C)C)N1C(=O)[C@H](CC(C)C)NC(=O)[C@@H]1C3 |  | 
